Measurements: ChEMBL document CHEMBL3351419, “Orally bioavailable 6-chloro-7-methoxy-4(1H)-quinolones efficacious against multiple stages of Plasmodium” (J Med Chem, 2014)
≈ marks a conversion by molar mass, not a printed value.

Tests used:
Plasmodium falciparum [1] = assay: Antimalarial activity against multi-drug-resistant Plasmodium falciparum W2 infected in human type A+ erythrocytes assessed as growth inhibition after 72 hrs by SYBR Green I assay; type: functional, organism-based; settings: W2, 72 h
Plasmodium falciparum [2] = assay: Antimalarial activity against multi-drug-resistant Plasmodium falciparum TM90-C2B infected in human type A+ erythrocytes assessed as growth inhibition after 72 hrs by SYBR Green I assay; type: functional, organism-based
[3] = Resistance index, ratio of EC50 for multi-drug-resistant Plasmodium falciparum TM90-C2B infected in human type A+ erythrocytes to EC50 for multi-drug-resistant Plasmodium falciparum W2 infected in human type A+ erythrocytes; type: functional
J774 = assay: Cytotoxicity against mouse J774 cells after 72 hrs by CellTiter 96 assay; type: cell-based; settings: J774, 72 h
[4] = Cytotoxicity index, ratio of EC50 for mouse J774 cells to EC50 for multi-drug-resistant Plasmodium falciparum TM90-C2B infected in human type A+ erythrocytes; type: toxicity, cell-based; settings: read-out: Ratio EC50
Plasmodium berghei [5] = assay: Antimalarial activity against Plasmodium berghei ANKA expressing GFP infected in Balb/c mouse assessed as inhibition of parasitemia at 50 mg/kg, po qd administered as single dose on day 3 to 5 of exposure measured on day 6 post exposure by in vivo thomson test relative to control; type: functional
Plasmodium berghei [6] = assay: Antimalarial activity against Plasmodium berghei ANKA expressing GFP infected in Balb/c mouse assessed as inhibition of parasitemia at 10 mg/kg, po qd administered as single dose on day 3 to 5 of exposure measured on day 6 post exposure by in vivo thomson test relative to control; type: functional
Plasmodium berghei [7] = assay: Antimalarial activity against Plasmodium berghei ANKA expressing GFP infected in Balb/c mouse assessed as mouse survival at 50 mg/kg, po qd administered as single dose on day 3 to 5 of exposure measured on day 6 post exposure by in vivo thomson test relative to control; type: functional
Plasmodium berghei [8] = assay: Antimalarial activity against Plasmodium berghei ANKA expressing GFP infected in Balb/c mouse assessed as mouse survival at 10 mg/kg, po qd administered as single dose on day 3 to 5 of exposure measured on day 6 post exposure by in vivo thomson test relative to control; type: functional
Plasmodium berghei [9] = assay: Antimalarial activity against Plasmodium berghei ANKA expressing GFP infected in Balb/c mouse assessed as mouse cured from disease at 50 mg/kg, po qd administered as single dose on day 3 to 5 of exposure measured on day 30 post exposure by in vivo thomson test relative to control; type: functional
Plasmodium berghei [10] = assay: Antimalarial activity against Plasmodium berghei ANKA expressing GFP infected in Balb/c mouse assessed as mouse cured from disease at 10 mg/kg, po qd administered as single dose on day 3 to 5 of exposure measured on day 30 post exposure by in vivo thomson test relative to control; type: functional
Plasmodium berghei [11] = assay: animal or person; settings: ANKA, in Mus musculus, read-out: INH
Plasmodium berghei [12] = assay: animal or person; settings: ANKA, in Mus musculus, read-out: INH; remark: listed apart in the source
Liver microsome [13] = assay: Intrinsic clearance in human liver microsomes at 1 uM by LC-MS analysis; type: ADME; settings: microsomes, 1 µM
Liver microsome [14] = assay: Half life in human liver microsomes at 1 uM by LC-MS analysis; type: ADME
[15] = Aqueous solubility of the compound at pH 7.4; type: physicochemical; settings: buffer
[16] = octanol/water, pH 7.4
in vitro = settings: pampa, pH 7.4
Description: Effective permeability of the compound at pH 7.4 by PAMPA

Plasmodium berghei [17] = assay: Antimalarial activity against Plasmodium berghei ANKA expressing GFP infected in Balb/c mouse assessed as inhibition of parasitemia at 3 mg/kg, po qd administered as single dose on day 3 to 5 of exposure measured on day 6 post exposure by in vivo thomson test relative to control; type: functional
Plasmodium berghei [18] = assay: Antimalarial activity against Plasmodium berghei ANKA expressing GFP infected in Balb/c mouse assessed as mouse survival at 3 mg/kg, po qd administered as single dose on day 3 to 5 of exposure measured on day 6 post exposure by in vivo thomson test relative to control; type: functional
Plasmodium berghei [19] = assay: Antimalarial activity against Plasmodium berghei ANKA expressing GFP infected in Balb/c mouse assessed as mouse cured from disease at 3 mg/kg, po qd administered as single dose on day 3 to 5 of exposure measured on day 30 post exposure by in vivo thomson test relative to control; type: functional
Plasmodium berghei [20] = assay: Antimalarial activity against Plasmodium berghei ANKA expressing GFP infected in Balb/c mouse assessed as inhibition of parasitemia at 1 mg/kg, po qd administered as single dose on day 3 to 5 of exposure measured on day 6 post exposure by in vivo thomson test relative to control; type: functional
Plasmodium berghei [21] = assay: Antimalarial activity against Plasmodium berghei ANKA expressing GFP infected in Balb/c mouse assessed as inhibition of parasitemia at 0.3 mg/kg, po qd administered as single dose on day 3 to 5 of exposure measured on day 6 post exposure by in vivo thomson test relative to control; type: functional
Plasmodium berghei [22] = assay: Antimalarial activity against Plasmodium berghei ANKA expressing GFP infected in Balb/c mouse assessed as mouse survival at 1 mg/kg, po qd administered as single dose on day 3 to 5 of exposure measured on day 6 post exposure by in vivo thomson test relative to control; type: functional
Plasmodium berghei [23] = assay: Antimalarial activity against Plasmodium berghei ANKA expressing GFP infected in Balb/c mouse assessed as mouse survival at 0.3 mg/kg, po qd administered as single dose on day 3 to 5 of exposure measured on day 6 post exposure by in vivo thomson test relative to control; type: functional

| SMILES | EC50 (Plasmodium falciparum [1]) [nM] | EC50 (Plasmodium falciparum [2]) [nM] | Ratio EC50 [3] | EC50 (J774) [nM] | selectivity ratio [4] | inhibition in vivo at 50 mg/kg (Plasmodium berghei [5]) [%] | inhibition in vivo at 10 mg/kg (Plasmodium berghei [6]) [%] | mouse survival time at 50 mg/kg (Plasmodium berghei [7]) [days] | survival time at 10 mg/kg (Plasmodium berghei [8]) [days] | Activity (Plasmodium berghei [9]) [%] | Activity (Plasmodium berghei [10]) [%] | inhibition in vivo at 50 mg/kg (Plasmodium berghei [11]) [%] | inhibition in vivo at 50 mg/kg (Plasmodium berghei [12]) [%] | logD [16] | further results |
| --- | --- | --- | --- | --- | --- | --- | --- | --- | --- | --- | --- | --- | --- | --- | --- |
| COc1cc2[nH]c(C)c(-c3ccc(Oc4ccccc4)cc3)c(=O)c2cc1Cl | 2.4 | 1.31 | 0.55 | > 25500 | > 19500 | 70 | 87 | 4 | 4 | 0 | 0 | 83.9 | 69 |  |  |
| COc1cc2[nH]c(C)c(-c3ccc(F)cc3F)c(=O)c2cc1Cl | 26.3 | 44.6 | 1.7 | > 29800 | > 668 |  |  |  |  |  |  | 44.3 | 29.1 |  |  |
| CCc1c(C)[nH]c2cc(OC)c(Cl)cc2c1=O |  |  |  |  |  |  |  |  |  |  |  |  |  |  | CLint_mic (Liver microsome [13]): 56 µL/min/mg |
| COc1cc2[nH]c(C)c(-c3ccc(F)cc3C)c(=O)c2cc1Cl | 7.52 | 8.07 | 1.07 | 13600 | 1690 |  |  |  |  |  |  |  |  | 2.7 | t1/2 (Liver microsome [14]): 1.93 h; solubility kinetic [15]: < 2 µM |
| COc1ccc(-c2c(C)[nH]c3cc(OC)c(Cl)cc3c2=O)cc1 | 54 | 11.3 | 0.21 | > 30300 | > 2690 |  |  |  |  |  |  | 53.6 | 26.9 |  |  |
| COc1cc2[nH]c(C)c(-c3ccncc3)c(=O)c2cc1Cl | 128 | 219 | 1.71 | > 33300 | > 152 |  |  |  |  |  |  |  |  |  | CLint_mic (Liver microsome [13]): 15 µL/min/mg |
| COc1cc2[nH]c(C)c(-c3ccc(Cl)cc3C)c(=O)c2cc1Cl | 14.2 |  |  | > 28700 |  | 71 | 95 | 5 | 5 | 0 | 0 |  |  | 2.9 | solubility kinetic [15]: < 2 µM; Papp (in vitro): 369 ×10⁻⁶ cm/s |
| COc1cc2[nH]c(C)c(-c3ccc(OC(C)C)cc3)c(=O)c2cc1Cl | 58.4 | 12.6 | 0.22 | > 27900 | > 2220 |  |  |  |  |  |  | 41.4 | 26.8 |  |  |
| COc1cc2[nH]c(C)c(-c3ccc(-c4ccccc4)cc3)c(=O)c2cc1Cl | 1.78 | 4.33 | 2.43 | > 26600 | > 6140 | 79 | 80 | 0 | 0 |  |  | 85.7 | 61 |  |  |
| COc1cc2[nH]c(C)c(-c3ccccc3)c(=O)c2cc1Cl |  |  | 0.59 | > 33400 | > 2170 | < 1 |  | 0 |  |  |  |  |  |  | CLint_mic (Liver microsome [13]): 17 µL/min/mg |
| COc1cc2[nH]c(C)c(-c3ccc(C(F)(F)F)cc3)c(=O)c2cc1Cl | 6.25 | 5.98 | 0.96 | > 27200 | > 4550 | 97 | 92 | 4 | 3 | 0 | 0 |  |  |  |  |
| COc1cc2[nH]c(C)c(-c3ccc(COc4ccc(OC(F)(F)F)cc4)cc3)c(=O)c2cc1Cl | 7.74 | 1.59 | 0.21 | > 20400 | > 12800 |  |  |  |  |  |  |  |  | 4.4 | t1/2 (Liver microsome [14]): 2.15 h |
| COc1cc2[nH]c(C)c(-c3ccc(OCc4ccccc4)c(F)c3)c(=O)c2cc1Cl | 73.4 | 10.8 | 0.15 | > 23600 | > 2180 |  |  |  |  |  |  |  |  | 3.8 | t1/2 (Liver microsome [14]): 0.383 h; solubility kinetic [15]: < 2 µM |
| COc1cc2[nH]c(C)c(-c3ccc(C(F)(F)F)cc3C)c(=O)c2cc1Cl | 2.02 | 0.578 | 0.29 | > 26200 | > 45300 |  | 80 | 0 | 6 | 0 | 0 |  |  | 2.7 | t1/2 (Liver microsome [14]): 3.93 h; solubility kinetic [15]: < 2 µM; inhibition in vivo at 3 mg/kg (Plasmodium berghei [17]): 84%; survival time at 3 mg/kg (Plasmodium berghei [18]): 23 days; Activity (Plasmodium berghei [19]): 100% |
| COc1cc2[nH]c(C)c(-c3ccc(N4CCN(C)CC4)nc3)c(=O)c2cc1Cl | 1580 | 536 | 0.34 | > 25100 | > 46.8 |  |  |  |  |  |  | 0 | 0 |  |  |
| COc1cc2[nH]c(C)c(-c3ccc(OC(F)(F)F)cc3)c(=O)c2cc1Cl | 7.72 | 7.76 | 1.01 | > 26100 | > 3360 |  |  |  |  |  |  | 60 | 28.8 |  |  |
| COc1cc2[nH]c(C)c(-c3ccc(F)cc3)c(=O)c2cc1Cl | 20.8 | 35.8 | 1.72 | > 31500 | > 879 | 30 | 63 | 1 | 1 | 0 | 0 |  |  |  |  |
| COc1cc2[nH]c(C)c(-c3ccc(-c4ccc(OC(F)(F)F)cc4)nc3)c(=O)c2cc1Cl | 0.686 | 2.03 | 2.95 | > 21700 | > 10700 |  | 97.3 |  | 23 |  | 100 |  |  | 3.7 | solubility kinetic [15]: 6 to 12 µM (≈ 2.77 to 5.53 µg/mL); inhibition in vivo at 3 mg/kg (Plasmodium berghei [17]): 97.3%; inhibition in vivo at 1 mg/kg (Plasmodium berghei [20]): 95.8%; inhibition in vivo at 0.3 mg/kg (Plasmodium berghei [21]): 93.9%; survival time at 3 mg/kg (Plasmodium berghei [18]): 23 days; survival at 1 mg/kg (Plasmodium berghei [22]): 23 days; survival at 0.3 mg/kg (Plasmodium berghei [23]): 23 days; Activity (Plasmodium berghei [19]): 80% |
| O=C1C(O)=C([C@H]2CC[C@H](c3ccc(Cl)cc3)CC2)C(=O)c2ccccc21 [ATOVAQUONE] |  | 18400 |  |  |  |  |  |  |  | 0 |  |  |  |  |  |
| C[C@H]1[C@H](OC(=O)CCC(=O)O)O[C@@H]2O[C@@]3(C)CC[C@H]4[C@H](C)CC[C@@H]1[C@@]24OO3 [ARTESUNATE] |  |  |  |  |  |  |  |  |  |  |  | 97 | 81 |  |  |
